How the values were obtained:
[1] = LNP size and polydispersity index (PDI) by dynamic light scattering; type: physicochemical; conditions: LNP with cirRNA (SEQ ID NO: 1); for Size: in nm (unit assumed)
Procedure: (§1) Ionizable lipid, DSPC, Cholesterol and DMG-PEG 2000 were mixed at a molar ratio of 50:10:38.5:1.5 in absolute ethanol. Circular RNA and linear mRNA payloads were suspended in 25 mM Acetate Buffer (pH 4.5). To form LNPs, three volumes of luciferase encoding RNA, in the form of cirRNA (SEQ ID NO:1) and mRNA (SEQ ID NO:2) respectively, were mixed with one volume of lipids in ethanol solution by microfluidic mixing with the Nanoassemblr Ignite (Precision Nanosystems) at a flow rate of 12 ml/min. The molar ratio of ionizable lipid to ribonucleotide was 15 or 6. The final lipid concentration in solution ranged from 1.5 mM to 6 mM. After encapsulation, the particles were dialyzed twice against PBS.
(§2) The LNP size and polydispersity index (PDI), determined by dynamic light scattering (DLS), and zeta potential were measured by a Zetasizer machine (Malvern). RNA concentration and encapsulation efficacy were analyzed by the Quant-IT Ribogreen kit by calculating the percentage encapsulation at 100%−(RNA-LNPs/RNA-LNPs with Triton X-100).

[2] = LNP zeta potential (Zetasizer); type: physicochemical; conditions: LNP with cirRNA (SEQ ID NO: 1)
Procedure: as §1, §2

[3] = RNA encapsulation efficacy by Quant-IT Ribogreen kit; type: physicochemical; conditions: LNP with cirRNA (SEQ ID NO: 1)
Procedure: as §1, §2

Hep G2 cells [4] = test: In vitro expression of firefly-luciferase, Hep G2; type: cell-based; conditions: cirRNA (SEQ ID NO: 1) LNPs; firefly-luciferase luminescence; Hep G2 cells
Procedure: (§3) RAW 264.7 and Hep G2 cells were transfected with 100 ng/mL of RNA-LNPs encoding for firefly-luciferase. At 72 hours post transfection, the cells were washed and lysed. The luciferase expression was determined in the cell lysates with the luciferase assay reagent kit (Promega), according to the kit protocol, luciferase activity was measured by a luminometer.

RAW 264.7 cells [5] = test: In vitro expression of firefly-luciferase, RAW 264.7; type: cell-based; conditions: cirRNA (SEQ ID NO: 1) LNPs; firefly-luciferase luminescence; RAW 264.7 cells
Procedure: as §3

Hep G2 cells [6] = test: In vitro toxicity (CellTiter-Glo cell viability), Hep G2; type: cell-based; conditions: cirRNA (SEQ ID NO: 1) LNPs; Hep G2 cells;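 further: percent of untreated cells luminescence signal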
Procedure: (§4) RAW 264.7 and Hep G2 cells were transfected with 1 μg/mL RNA-LNPs. At 72 hours post transfection, cell viability was determined with the CellTiter-Glo® reagent kit, according to the kit protocol, measured by a luminometer.
(§5) The cell viability was calculated according to the following formula: […]

RAW 264.7 cells [7] = test: In vitro toxicity (CellTiter-Glo cell viability), RAW 264.7; type: cell-based; conditions: cirRNA (SEQ ID NO: 1) LNPs; RAW 264.7 cells;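 further: percent of untreated cells luminescence signal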
Procedure: as §4, §5

BALB/C mice = test: In vivo expression, whole-body luminescence (IVIS); conditions: cirRNA (SEQ ID NO: 1) LNPs, BALB/C mice
Procedure: 6-8 week old, female BALB/C mice were injected with 0.05 mg*kg-1 of RNA-LNPs encoding for firefly-luciferase by intravenous injection. At 6 hours post injection, animals were intraperitoneally injected with 15 mg/ml of Luciferin substrate and whole-body luminescence was determined by a bioluminescent in vivo imaging system (IVIS).

SMILES	PDI [1]	Size [1]	Zeta (mV) [2] [mV]	Encapsulation Efficiency % [3] [%]	In vitro Expression HepG2 (Hep G2 cells [4])	In vitro Expression RAW (RAW 264.7 cells [5])	In vitro Viability HepG2 (Hep G2 cells [6]) [%]	In vitro Viability RAW (RAW 264.7 cells [7]) [%]	In vivo Expression (Whole Body) (BALB/C mice)
CCCCC/C=C\C/C=C\CCCCCCCCN(CCCCCCCC/C=C\CCCCCCCC)CCOC(=O)NCCN(C)C [Lipid 67, 2-(((Z)-octadec-9-en-1-yl)((9Z,12Z)-octadeca-9,12-dien-1-yl)amino)ethyl (2-(dimethylamino)ethyl)carbamate]	0.087	142.9	8.392	99	1.21E+05	5.99E+02	120	107	6.00E+07
CCCCC/C=C\C/C=C\CCCCCCCCN(CCCCCC(=O)OCC(CCCCCCCC)CCCCCCCCCC)CCOC(=O)NCCN1CCN(C)CC1 (stereo not drawn) [Lipid 78, 2-octyldodecyl 6-((2-(((2-(4-methylpiperazin-1-yl)ethyl)carbamoyl)oxy)ethyl)((9Z,12Z)-octadeca-9,12-dien-1-yl)amino)hexanoate]	0.0918	110	9.83	100	1.31E+05	7.80E+03	113	106	4.92E+05
CCCCC/C=C\C/C=C\CCCCCCCCN(CCCCCCCC/C=C\C/C=C\CCCCC)CCOC(=O)NCCN1CCCCC1 [Lipid 85]	0.1671	81.48	4.031	91	2.85E+07	5.74E+05	78	105	1.96E+07
CCCCCCCOC(=O)CCCCCCCCCN(CCCCCCCCCC(=O)OCCCCCCC)CCOC(=O)NCCN1CCCC1 [Lipid 119, diheptyl 10,10′-((2-(((2-(pyrrolidin-1-yl)ethyl)carbamoyl)oxy)ethyl)azanediyl)bis(decanoate)]	0.064	142.1	9.53	96	1.46E+03	1.47E+04	17	8	9.30E+05
CCCCCCCOC(=O)CCCCCCCCCN(CCCCCCCCCC(=O)OCCCCCCC)CCOC(=O)NCCN(C)C [Lipid 120, heptyl 10-(10-(heptyloxy)-10-oxodecyl)-2-methyl-6-oxo-7-oxa-2,5,10-triazaicosan-20-oate]	0.09314	143.8	9.34	96	2.13E+03	8.51E+03	100	81	3.33E+05
CCCCCCCOC(=O)CCCCCCCCCN(CCCCCCCCCC(=O)OCCCCCCC)CCOC(=O)NCCCN(CC)CC [Lipid 122, heptyl 3-ethyl-12-(10-(heptyloxy)-10-oxodecyl)-8-oxo-9-oxa-3,7,12-triazadocosan-22-oate]	0.187	134.6	10.84	96	2.48E+03	2.24E+04	17	8	1.43E+05
CCCCC/C=C\C/C=C\CCCCCCCCN(CCCCCCCC(=O)OC(CCCCCCCC)CCCCCCCC)CCOC(=O)NCCCn1ccnc1 [Lipid 133, heptadecan-9-yl 8-((2-(((3-(1H-imidazol-1-yl)propyl)carbamoyl)oxy)ethyl)((9Z,12Z)-octadeca-9,12-dien-1-yl)amino)octanoate]	0.0973	92.91	2.957	95	4.26E+04	8.30E+04	13	27	2.04E+08

Further lines, with some results ahead:

PDI [1]	Size [1]	Zeta (mV) [2] [mV]	Encapsulation Efficiency % [3] [%]	SMILES	In vitro Expression HepG2 (Hep G2 cells [4])	In vitro Expression RAW (RAW 264.7 cells [5])	In vitro Viability HepG2 (Hep G2 cells [6]) [%]	In vitro Viability RAW (RAW 264.7 cells [7]) [%]	In vivo Expression (Whole Body) (BALB/C mice)
0.205	161.1	16.31	95	CCCCC/C=C\C/C=C\CCCCCCCCN(CCCCCCCC/C=C\CCCCCCCC)CCOC(=O)NCCCN(CC)CC [Lipid 69, 2-(((Z)-octadec-9-en-1-yl)((9Z,12Z)-octadeca-9,12-dien-1-yl)amino)ethyl (3-(diethylamino)propyl)carbamate]	4.62E+04	2.25E+02	86	102	2.17E+06
0.115	83.09	11.22	97	CCCCC/C=C\C/C=C\CCCCCCCCN(CCCCCCCC/C=C\CCCCCCCC)CCOC(=O)NCCN1CCN(C)CC1 [Lipid 70, 2-(((Z)-octadec-9-en-1-yl)((9Z,12Z)-octadeca-9,12-dien-1-yl)amino)ethyl (2-(4-methylpiperazin-1-yl)ethyl)carbamate]	9.79E+04	2.29E+03	120	104	2.08E+05
0.1484	137.8	0.03131	96	CCCCC/C=C\C/C=C\CCCCCCCCN(CCCCCC(=O)OCC(CCCCCCCC)CCCCCCCCCC)CCOC(=O)NCc1ncc[nH]1 (stereo not drawn) [Lipid 76, 2-octyldodecyl 6-((2-((((1H-imidazol-2-yl)methyl)carbamoyl)oxy)ethyl)((9Z,12Z)-octadeca-9,12-dien-1-yl)amino)hexanoate]	1.22E+04	5.53E+02	121	86	2.55E+05
0.2181	99.18	−2.908	93	CCCCC/C=C\C/C=C\CCCCCCCCN(CCCCCC(=O)OCC(CCCCCCCC)CCCCCCCCCC)CCOC(=O)NCCN1CCOCC1 (stereo not drawn) [Lipid 79, 2-octyldodecyl 6-((2-(((2-morpholinoethyl)carbamoyl)oxy)ethyl)((9Z,12Z)-octadeca-9,12-dien-1-yl)amino)hexanoate]	3.94E+03	4.60E+01	104	104	4.70E+07
0.1685	145.8	11.37	99	CCCCC/C=C\C/C=C\CCCCCCCCN(CCCCCCCC(=O)OC(CCCCCCCC)CCCCCCCC)CCOC(=O)NCCCN(C)C [Lipid 130, heptadecan-9-yl 2-methyl-11-((9Z,12Z)-octadeca-9,12-dien-1-yl)-7-oxo-8-oxa-2,6,11-triazanonadecan-19-oate]	5.31E+06	6.92E+05	91	90	1.08E+07
0.043	89.71	−8.698	90	CCCCC/C=C\C/C=C\CCCCCCCCN(CCCCCCCC(=O)OC(CCCCCCCC)CCCCCCCC)CCOC(=O)NCCN1CCOCC1 [Lipid 134, heptadecan-9-yl 8-((2-(((2-morpholinoethyl)carbamoyl)oxy)ethyl)((9Z,12Z)-octadeca-9,12-dien-1-yl)amino)octanoate]	3.17E+04	5.25E+04	13	84	8.93E+05
